Reference: ChEMBL document CHEMBL3593241, “Leveraging the Pre-DFG Residue Thr-406 To Obtain High Kinase Selectivity in an Aminopyrazole-Type PAK1 Inhibitor Series” (ACS Med Chem Lett, 2015)

What was measured:
[1] = target: T1, Serine/threonine-protein kinase PAK 1 (Homo sapiens, UniProt Q13153); experiment: Inhibition of PAK1 (unknown origin)
[2] = target: T2, Serine/threonine-protein kinase PAK 4 (Homo sapiens, UniProt O96013); experiment: Inhibition of PAK4 (unknown origin)
Target sequence in this assay (O96013 whole entry): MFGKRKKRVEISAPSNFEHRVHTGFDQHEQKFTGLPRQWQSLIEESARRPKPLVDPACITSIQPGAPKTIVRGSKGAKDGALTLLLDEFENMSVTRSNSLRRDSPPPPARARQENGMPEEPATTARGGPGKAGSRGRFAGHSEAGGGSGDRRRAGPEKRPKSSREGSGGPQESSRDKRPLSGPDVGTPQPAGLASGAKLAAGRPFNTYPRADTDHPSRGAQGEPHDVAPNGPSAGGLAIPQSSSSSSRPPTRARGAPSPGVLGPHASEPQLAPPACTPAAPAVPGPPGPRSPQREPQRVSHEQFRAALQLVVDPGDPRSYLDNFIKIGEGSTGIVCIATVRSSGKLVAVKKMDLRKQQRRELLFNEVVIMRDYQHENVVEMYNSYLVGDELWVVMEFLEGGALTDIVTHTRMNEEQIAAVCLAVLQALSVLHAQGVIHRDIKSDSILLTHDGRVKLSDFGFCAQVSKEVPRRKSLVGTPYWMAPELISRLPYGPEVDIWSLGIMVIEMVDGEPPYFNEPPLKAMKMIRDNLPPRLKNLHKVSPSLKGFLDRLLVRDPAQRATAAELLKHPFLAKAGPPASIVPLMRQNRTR

Aurora kinase A = target: T3, Aurora kinase A (Homo sapiens, UniProt O14965); experiment: Inhibition of Aurora A (unknown origin)
T3 sequence (O14965 whole entry): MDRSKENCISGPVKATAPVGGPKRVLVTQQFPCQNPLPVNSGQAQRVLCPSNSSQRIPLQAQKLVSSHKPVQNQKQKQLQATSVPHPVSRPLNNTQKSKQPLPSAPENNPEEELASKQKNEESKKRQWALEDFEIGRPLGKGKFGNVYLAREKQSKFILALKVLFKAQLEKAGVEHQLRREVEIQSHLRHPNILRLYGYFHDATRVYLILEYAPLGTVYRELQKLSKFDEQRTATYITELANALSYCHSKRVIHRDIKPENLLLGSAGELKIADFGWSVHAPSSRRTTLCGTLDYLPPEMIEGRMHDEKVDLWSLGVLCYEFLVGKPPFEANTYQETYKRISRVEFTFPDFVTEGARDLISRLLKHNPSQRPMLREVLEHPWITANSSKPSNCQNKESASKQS

[3] = Lipophilicity, log D of the compound at pH 7.4; type: physicochemical; settings: buffer
[4] = Apparent permeability across apical to basolateral side of MDCK cells; type: ADME, cell-based, Canis lupus familiaris; settings: dog
[5] = target: T1, Serine/threonine-protein kinase PAK 1; experiment: Inhibition of PAK1 in human EBC1 cells assessed as inhibition of MEK phosphorylation at S298; type: cell-based
[6] = Clearance in mouse at 0.3 mg/kg, iv; type: ADME, organism-based; settings: in vivo
[7] = (§1) AUC in mouse at 25 mg/kg, po; type: ADME, organism-based; settings: in vivo
[8] = Oral bioavailability in mouse at 25 mg/kg; type: ADME, organism-based; settings: in vivo
[9] = target: Protein kinase C theta type (Homo sapiens) (UniProt Q04759); experiment: Inhibition of recombinant human PKCtheta at 1 uM relative to control
Protein kinase C theta type (Homo sapiens), sequence (Q04759 whole entry, looked up): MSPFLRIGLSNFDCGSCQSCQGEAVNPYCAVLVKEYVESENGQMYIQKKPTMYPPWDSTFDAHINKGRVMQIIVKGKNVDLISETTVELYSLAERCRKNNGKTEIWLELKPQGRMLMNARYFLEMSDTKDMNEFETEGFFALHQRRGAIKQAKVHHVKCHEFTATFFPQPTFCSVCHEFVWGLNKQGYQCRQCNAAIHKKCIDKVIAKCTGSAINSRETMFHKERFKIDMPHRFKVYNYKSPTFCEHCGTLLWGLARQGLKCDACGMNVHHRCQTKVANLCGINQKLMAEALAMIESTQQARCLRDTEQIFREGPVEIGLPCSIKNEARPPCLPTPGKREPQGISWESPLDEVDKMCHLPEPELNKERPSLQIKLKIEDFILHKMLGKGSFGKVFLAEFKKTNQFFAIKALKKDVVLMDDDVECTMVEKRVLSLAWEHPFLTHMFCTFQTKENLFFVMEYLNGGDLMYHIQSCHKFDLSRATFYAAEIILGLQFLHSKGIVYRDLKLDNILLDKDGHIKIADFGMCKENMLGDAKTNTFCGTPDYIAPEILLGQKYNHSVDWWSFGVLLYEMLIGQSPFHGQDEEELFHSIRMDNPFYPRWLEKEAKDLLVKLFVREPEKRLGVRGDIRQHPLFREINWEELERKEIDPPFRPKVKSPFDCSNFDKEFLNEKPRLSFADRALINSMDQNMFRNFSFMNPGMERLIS

[10] = target: CDK2/Cyclin A2 (Homo sapiens) (UniProt P24941+P20248); experiment: Inhibition of recombinant human CDK2/cyclin A at 1 uM relative to control; type: protein-complex assay
[11] = target: Ribosomal protein S6 kinase alpha-2 (Homo sapiens) (UniProt Q15349); settings: 1 uM
Ribosomal protein S6 kinase alpha-2 (Homo sapiens), sequence (Q15349 whole entry): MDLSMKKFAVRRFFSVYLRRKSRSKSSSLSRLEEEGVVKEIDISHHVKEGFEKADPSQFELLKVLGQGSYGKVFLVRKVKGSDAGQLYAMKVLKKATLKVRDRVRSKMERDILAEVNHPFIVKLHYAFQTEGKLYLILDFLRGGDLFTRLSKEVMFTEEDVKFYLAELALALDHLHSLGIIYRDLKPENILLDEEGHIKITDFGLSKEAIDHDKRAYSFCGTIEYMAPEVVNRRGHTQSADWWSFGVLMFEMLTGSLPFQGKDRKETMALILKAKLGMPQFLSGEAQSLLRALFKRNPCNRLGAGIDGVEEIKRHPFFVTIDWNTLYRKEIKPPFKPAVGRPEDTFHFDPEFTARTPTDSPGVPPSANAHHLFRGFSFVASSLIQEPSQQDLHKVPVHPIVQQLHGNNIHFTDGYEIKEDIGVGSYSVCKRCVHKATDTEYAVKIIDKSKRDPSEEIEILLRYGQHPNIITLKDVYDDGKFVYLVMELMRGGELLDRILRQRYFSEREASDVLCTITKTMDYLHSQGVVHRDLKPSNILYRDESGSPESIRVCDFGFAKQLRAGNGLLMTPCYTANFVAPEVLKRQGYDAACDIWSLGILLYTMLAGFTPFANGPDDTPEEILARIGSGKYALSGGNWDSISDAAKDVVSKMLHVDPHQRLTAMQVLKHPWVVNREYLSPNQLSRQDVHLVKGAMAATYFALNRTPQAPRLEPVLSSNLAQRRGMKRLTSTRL
Description: Inhibition of recombinant human RSK3 at 1 uM relative to control

[12] = target: Aurora kinase A (Homo sapiens) (UniProt O14965); settings: 1 uM
Description: Inhibition of recombinant human Aurora A at 1 uM relative to control

[13] = target: Cyclin-dependent kinase 1/cyclin B1 (Homo sapiens) (UniProt P06493+P14635); settings: 1 uM
Description: Inhibition of recombinant human CDK1/cyclin B at 1 uM relative to control

[14] = target: Cyclin-dependent kinase 5/CDK5 activator 1 (Homo sapiens) (UniProt Q00535+Q15078); settings: 1 uM
Description: Inhibition of recombinant human CDK5/p25 at 1 uM relative to control

[15] = target: Cyclin-dependent kinase 7/ cyclin H (Homo sapiens) (UniProt P51946+P50613); settings: 1 uM
Description: Inhibition of recombinant human CDK7/cyclin H at 1 uM relative to control

[16] = target: Myotonin-protein kinase (Homo sapiens) (UniProt Q09013); settings: 1 uM
Description: Inhibition of recombinant human DMPK at 1 uM relative to control

[17] = target: Epidermal growth factor receptor (Homo sapiens) (UniProt P00533); settings: 1 uM
Description: Inhibition of recombinant human EGFR at 1 uM relative to control

[18] = target: Receptor-type tyrosine-protein kinase FLT3 (Homo sapiens) (UniProt P36888); settings: 1 uM
Description: Inhibition of recombinant human FLT3 at 1 uM relative to control

[19] = target: Glycogen synthase kinase-3 alpha (Homo sapiens) (UniProt P49840); settings: 1 uM
Description: Inhibition of GSK-3alpha (unknown origin) at 1 uM relative to control

[20] = target: Tyrosine-protein kinase JAK2 (Homo sapiens) (UniProt O60674); settings: 1 uM
Description: Inhibition of recombinant human JAK2 at 1 uM relative to control

[21] = target: Vascular endothelial growth factor receptor 2 (Homo sapiens) (UniProt P35968); settings: 1 uM
Description: Inhibition of recombinant human KDR at 1 uM relative to control

[22] = target: Mitogen-activated protein kinase kinase kinase kinase 5 (Homo sapiens) (UniProt Q9Y4K4); settings: 1 uM
Description: Inhibition of recombinant human KHS1 at 1 uM relative to control

[23] = target: Mitogen-activated protein kinase kinase kinase 9 (Homo sapiens) (UniProt P80192); settings: 1 uM
Description: Inhibition of recombinant human MLK1 at 1 uM relative to control

[24] = target: Serine/threonine-protein kinase 4 (Homo sapiens) (UniProt Q13043); settings: 1 uM
Description: Inhibition of recombinant human MST1 at 1 uM relative to control

[25] = target: Serine/threonine-protein kinase 3 (Homo sapiens) (UniProt Q13188); settings: 1 uM
Serine/threonine-protein kinase 3 (Homo sapiens), sequence (Q13188 whole entry): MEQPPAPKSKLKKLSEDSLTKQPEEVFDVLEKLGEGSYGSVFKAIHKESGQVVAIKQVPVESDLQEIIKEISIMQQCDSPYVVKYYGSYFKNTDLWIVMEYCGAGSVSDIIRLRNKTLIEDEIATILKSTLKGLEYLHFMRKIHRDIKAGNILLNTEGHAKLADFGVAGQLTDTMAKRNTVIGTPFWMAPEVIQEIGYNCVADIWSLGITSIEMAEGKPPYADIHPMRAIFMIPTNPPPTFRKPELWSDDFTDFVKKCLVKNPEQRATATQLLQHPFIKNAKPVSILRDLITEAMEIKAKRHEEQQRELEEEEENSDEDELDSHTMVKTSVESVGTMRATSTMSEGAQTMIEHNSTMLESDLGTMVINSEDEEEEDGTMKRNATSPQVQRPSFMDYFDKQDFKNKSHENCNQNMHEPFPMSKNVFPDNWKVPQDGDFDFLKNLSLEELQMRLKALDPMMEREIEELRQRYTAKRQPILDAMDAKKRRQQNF
Description: Inhibition of recombinant human MST2 at 1 uM relative to control

[26] = target: T1, Serine/threonine-protein kinase PAK 1; settings: 1 uM
Description: Inhibition of recombinant human PAK1 at 1 uM relative to control

[27] = target: T2, Serine/threonine-protein kinase PAK 4; settings: 1 uM
Target sequence in this assay (O96013 whole entry, looked up): as the sequence (O96013 whole entry) above
Description: Inhibition of recombinant human PAK4 at 1 uM relative to control

[28] = system: Platelet-derived growth factor receptor alpha (Homo sapiens), P16234 [V561D]; settings: 1 uM
Platelet-derived growth factor receptor alpha (Homo sapiens), P16234 [V561D], sequence (P16234 whole entry V561D): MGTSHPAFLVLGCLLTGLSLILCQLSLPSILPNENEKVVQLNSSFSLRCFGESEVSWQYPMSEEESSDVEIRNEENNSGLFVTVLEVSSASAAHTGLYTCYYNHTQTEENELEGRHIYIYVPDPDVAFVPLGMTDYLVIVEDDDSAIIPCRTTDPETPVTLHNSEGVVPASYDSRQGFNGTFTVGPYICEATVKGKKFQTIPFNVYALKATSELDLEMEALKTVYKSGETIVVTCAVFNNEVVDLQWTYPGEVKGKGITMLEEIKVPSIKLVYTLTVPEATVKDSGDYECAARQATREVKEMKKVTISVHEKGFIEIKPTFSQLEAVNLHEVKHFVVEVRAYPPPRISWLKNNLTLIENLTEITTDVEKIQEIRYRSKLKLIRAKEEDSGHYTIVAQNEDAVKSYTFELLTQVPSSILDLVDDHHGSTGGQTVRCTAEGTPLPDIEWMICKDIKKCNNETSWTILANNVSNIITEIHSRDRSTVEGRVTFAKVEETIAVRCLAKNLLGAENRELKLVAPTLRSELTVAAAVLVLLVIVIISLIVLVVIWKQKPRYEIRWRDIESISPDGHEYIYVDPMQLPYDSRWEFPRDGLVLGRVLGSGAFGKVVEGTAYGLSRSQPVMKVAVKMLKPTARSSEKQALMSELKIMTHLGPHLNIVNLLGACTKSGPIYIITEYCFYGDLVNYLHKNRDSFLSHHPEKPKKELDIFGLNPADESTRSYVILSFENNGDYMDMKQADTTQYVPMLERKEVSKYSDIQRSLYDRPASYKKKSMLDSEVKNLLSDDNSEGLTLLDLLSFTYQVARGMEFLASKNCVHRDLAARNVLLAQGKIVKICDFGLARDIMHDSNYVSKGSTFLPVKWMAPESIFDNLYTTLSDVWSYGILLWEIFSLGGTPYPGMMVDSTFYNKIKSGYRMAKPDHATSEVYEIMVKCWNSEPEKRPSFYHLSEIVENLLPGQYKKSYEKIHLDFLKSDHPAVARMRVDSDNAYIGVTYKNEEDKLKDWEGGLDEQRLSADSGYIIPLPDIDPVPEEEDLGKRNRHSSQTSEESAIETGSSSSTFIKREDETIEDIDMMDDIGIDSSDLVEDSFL
Description: Inhibition of recombinant human PDGFRalpha V561D mutant at 1 uM relative to control

[29] = target: Protein kinase C alpha type (Homo sapiens) (UniProt P17252); settings: 1 uM
Description: Inhibition of recombinant human PKCalpha at 1 uM relative to control

[30] = target: Protein kinase C delta type (Homo sapiens) (UniProt Q05655); settings: 1 uM
Description: Inhibition of recombinant human PKCdelta at 1 uM relative to control

[31] = target: Proto-oncogene tyrosine-protein kinase Src (Homo sapiens) (UniProt P12931); settings: 1 uM
Proto-oncogene tyrosine-protein kinase Src (Homo sapiens), sequence (P12931 2-536 limits assumed): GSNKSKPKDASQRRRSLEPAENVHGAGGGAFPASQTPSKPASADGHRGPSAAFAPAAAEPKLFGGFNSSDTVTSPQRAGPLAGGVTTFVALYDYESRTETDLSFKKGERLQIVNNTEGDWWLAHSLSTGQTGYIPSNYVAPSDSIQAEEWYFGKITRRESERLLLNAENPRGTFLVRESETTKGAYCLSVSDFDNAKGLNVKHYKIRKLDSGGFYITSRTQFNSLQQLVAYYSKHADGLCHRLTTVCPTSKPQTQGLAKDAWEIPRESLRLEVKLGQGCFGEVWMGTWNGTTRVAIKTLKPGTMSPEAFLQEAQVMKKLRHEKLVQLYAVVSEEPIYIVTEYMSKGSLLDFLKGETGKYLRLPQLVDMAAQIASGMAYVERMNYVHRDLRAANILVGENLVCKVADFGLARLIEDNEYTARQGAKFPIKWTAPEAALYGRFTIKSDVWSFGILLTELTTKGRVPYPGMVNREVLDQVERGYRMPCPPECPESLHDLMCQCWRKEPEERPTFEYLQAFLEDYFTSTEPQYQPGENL
Description: Inhibition of recombinant human Src at 1 uM relative to control

[32] = target: High affinity nerve growth factor receptor (Homo sapiens) (UniProt P04629); settings: 1 uM
Description: Inhibition of recombinant human TrkA at 1 uM relative to control

[33] = target: BDNF/NT-3 growth factors receptor (Homo sapiens) (UniProt Q16620); settings: 1 uM
Description: Inhibition of recombinant human TrkB at 1 uM relative to control

Mus musculus = experiment: as §1; type: ADME, organism-based; settings: in vivo, BLD = below limit of detection

T1 sequence (Q13153 whole entry): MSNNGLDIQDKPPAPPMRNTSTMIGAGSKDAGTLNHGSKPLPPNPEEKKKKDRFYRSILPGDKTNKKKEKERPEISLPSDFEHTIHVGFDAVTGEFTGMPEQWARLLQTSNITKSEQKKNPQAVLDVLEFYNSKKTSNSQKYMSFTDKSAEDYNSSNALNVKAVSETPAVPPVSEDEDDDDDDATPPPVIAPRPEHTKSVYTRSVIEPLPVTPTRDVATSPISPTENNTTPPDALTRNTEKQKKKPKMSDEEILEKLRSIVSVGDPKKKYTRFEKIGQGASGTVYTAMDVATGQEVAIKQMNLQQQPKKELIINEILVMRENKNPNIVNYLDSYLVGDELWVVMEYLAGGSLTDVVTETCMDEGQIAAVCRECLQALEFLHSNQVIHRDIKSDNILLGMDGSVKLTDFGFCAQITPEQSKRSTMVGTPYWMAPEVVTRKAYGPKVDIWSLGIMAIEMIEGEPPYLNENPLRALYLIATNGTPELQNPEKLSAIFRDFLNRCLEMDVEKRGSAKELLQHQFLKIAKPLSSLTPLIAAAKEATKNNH

`CN1CC[C@H](c2cc(Nc3ccnc(N(C)Cc4ccc5[nH]cnc5c4Cl)n3)n[nH]2)C1=O` showed a Ki [1] of 18 nM, a Ki [2] of 950 nM and a Ki (Aurora kinase A) greater than 5400 nM. For the same compound, the logD [3] was 1.8, the Papp A→B [4] was 5 ×10⁻⁶ cm/s and the IC50 [5] was 7.8 µM. For the same compound, the clearance [6] was 7 mL/min/kg, the AUC [7] was 5.2 µM·h and the bioavailability [8] was less than 1%.

With `C[C@H]1CN(C)C(=O)[C@@H]1c1cc(Nc2ccnc(N(C)C[C@H]3CC[C@H](N)CC3)n2)n[nH]1` the Ki [1] was 46 nM, the Ki [2] was 1020 nM and the Ki (Aurora kinase A) was greater than 5400 nM. It also gave an inhibition [9] greater than 75%, an inhibition [10] of less than 75% and an inhibition [11] of less than 75%. The inhibition [12] was less than 75%, the inhibition [13] was less than 75% and the inhibition [14] was less than 75%. It also gave an inhibition [15] of less than 75%, an inhibition [16] of less than 75% and an inhibition [17] of less than 75%. The inhibition [18] was less than 75%, the inhibition [19] was less than 75% and the inhibition [20] was less than 75%. For the same compound, the inhibition [21] was less than 75%, the inhibition [22] was less than 75% and the inhibition [23] was less than 75%. It also gave an inhibition [24] of less than 75%, an inhibition [25] of less than 75% and an inhibition [26] greater than 75%. It also gave an inhibition [27] of less than 75%, an inhibition [28] of less than 75% and an inhibition [29] of less than 75%. The inhibition [30] was less than 75%, the inhibition [31] was less than 75% and the inhibition [32] was less than 75%. The inhibition [33] was less than 75%.

For `CN1CC[C@H](c2cc(Nc3ccnc(N(C)C[C@H]4CC[C@H](N)CC4)n3)n[nH]2)C1=O`, the Ki [1] was 37 nM, the Ki [2] was 344 nM and the Ki (Aurora kinase A) was 3500 nM. It also gave a logD [3] of 0.96, an IC50 [5] greater than 10 µM and a bioavailability [8] of less than 1%.

`CCN(C[C@H]1CC[C@H](N)CC1)c1nccc(Nc2cc([C@H]3CCN(C)C3=O)[nH]n2)n1` showed a Ki [1] of 49 nM, a Ki [2] of 621 nM and a Ki (Aurora kinase A) greater than 5400 nM. The inhibition [9] was greater than 75%, the logD [3] was 0.12 and the IC50 [5] was greater than 10 µM. For the same compound, the clearance [6] was 33 mL/min/kg, the AUC (Mus musculus) was “BLD” and the bioavailability [8] was less than 1%. It also gave an inhibition [10] of less than 75%.

`CCN1CC[C@H](c2cc(Nc3ccnc(N(C)C[C@H]4CC[C@H](N)CC4)n3)n[nH]2)C1=O` gave a Ki [1] of 18 nM, a Ki [2] of 817 nM and a Ki (Aurora kinase A) greater than 5400 nM.

Work on `CN1CC[C@H](c2cc(Nc3ccnc(NC[C@H]4CC[C@H](N)CC4)n3)n[nH]2)C1=O` yielded a Ki [1] of 111 nM, a Ki [2] of 1270 nM and a Ki (Aurora kinase A) greater than 5400 nM.

For `CN(Cc1ccc2[nH]cnc2c1Cl)c1nccc(Nc2cc(C3CC3)[nH]n2)n1`, the Ki [1] was 5 nM, the Ki [2] was 272 nM and the Ki (Aurora kinase A) was 3 nM.

Work on `COCC(C)c1cc(Nc2ccnc(N(C)Cc3ccc4[nH]cnc4c3Cl)n2)n[nH]1` (stereo not drawn) yielded a Ki [1] of 29 nM, a Ki [2] of 617 nM and a Ki (Aurora kinase A) of 131 nM.

With `CN1CC[C@@H](c2cc(Nc3ccnc(N(C)Cc4ccc5[nH]cnc5c4Cl)n3)n[nH]2)C1=O` the Ki [1] was 552 nM, the Ki [2] was greater than 2900 nM and the Ki (Aurora kinase A) was greater than 5400 nM.

With `Clc1c(CNc2nccc(Nc3cc(C4CCCO4)[nH]n3)n2)ccc2[nH]cnc12` (racemic) the Ki [1] was 25 nM, the Ki [2] was 1300 nM and the Ki (Aurora kinase A) was 25 nM.

Work on `CN1CC(C)(C)C(c2cc(Nc3ccnc(N(C)C[C@H]4CC[C@H](N)CC4)n3)n[nH]2)C1=O` (stereo partly drawn) yielded a Ki [1] greater than 4500 nM, a Ki [2] greater than 2900 nM and a Ki (Aurora kinase A) greater than 5400 nM.

Work on `CN(Cc1ccc2[nH]cnc2c1Cl)c1nccc(Nc2cc(C3CCC(=O)C3)[nH]n2)n1` (racemic) yielded a Ki [1] of 16 nM, a Ki [2] of 629 nM and a Ki (Aurora kinase A) of 17 nM.

`CC(=O)N(C)Cc1cc(Nc2ccnc(N(C)Cc3ccc4[nH]cnc4c3Cl)n2)n[nH]1` showed a Ki [1] of 373 nM, a Ki [2] greater than 2900 nM and a Ki (Aurora kinase A) of 893 nM.

Work on `CN1CCCC(c2cc(Nc3ccnc(N(C)C[C@H]4CC[C@H](N)CC4)n3)n[nH]2)C1=O` (mixture of isomers) yielded a Ki [1] of 362 nM, a Ki [2] of 2490 nM and a Ki (Aurora kinase A) greater than 5400 nM.
